Activity calls are given as the source filed them. No rule for the calls is given here.
Test system: rodent carcinogenicity bioassays, tumor incidence
Experiment: CCRIS carcinogenicity studies
How it was run: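 Archive of carcinogenicity, mutagenicity, tumor promotion and tumor inhibition results drawn from journals, NCI reports and other sources, expert-reviewed; covers 1985-2011 and is no longer updated.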

With C=CC=C the carcinogen call (Species: MOUSE, Strain/Sex: B6C3F1/FEMALE, Route: INHALATION, Dose: 0, 6.25, 20, 62.5, 200, 625 PPM 6 HR/D 5 D/WK FOR 2 YR (STUDY DURATION: 2 YR), Dose: 0, 6.25, 20, 62.5, 200, 625 PPM 6 HR/D 5 D/WK FOR 2 YR (STUDY DURATION: 2 YR), Tumor Site: Type of Lesion: HARDERIAN GLAND: ADENOMA OR ADENOCARCINOMA, LIVER: HEPATOCELLULAR CARCINOMA, MAMMARY GLAND: ADENOCARCINOMA, OVARIES: GRA, Tumor Site: Type of Lesion: HARDERIAN GLAND: ADENOMA OR ADENOCARCINOMA, LIVER: HEPATOCELLULAR CARCINOMA, MAMMARY GLAND: ADENOCARCINOMA, OVARIES: GRA) was “active; positive”, the carcinogen call (Species: MOUSE, Strain/Sex: B6C3F1/FEMALE, Route: INHALATION, Dose: 0, 6.25, 20, 62.5, 200, 625 PPM 6 HR/D 5 D/WK FOR 2 YR (STUDY DURATION: 2 YR), Dose: 0, 6.25, 20, 62.5, 200, 625 PPM 6 HR/D 5 D/WK FOR 2 YR (STUDY DURATION: 2 YR), Tumor Site: Type of Lesion: HEMATOPOIETIC SYSTEM: LYMPHOCYTIC LYMPHOMA, LYMPHOMA, BLOOD VESSELS: HEMANGIOSARCOMA, LUNG: ALVEOLAR/BRONCHIOLAR TUMOR;, Tumor Site: Type of Lesion: HEMATOPOIETIC SYSTEM: LYMPHOCYTIC LYMPHOMA, LYMPHOMA, BLOOD VESSELS: HEMANGIOSARCOMA, LUNG: ALVEOLAR/BRONCHIOLAR TUMOR) was “active; positive” and the carcinogen call (Species: MOUSE, Strain/Sex: B6C3F1/FEMALE, Route: INHALATION, Dose: 0, 6.25, 20, 62.5, 200, 625 PPM 6 HR/D 5 D/WK FOR 103 WK (STUDY DURATION: 2 YR), Dose: 0, 6.25, 20, 62.5, 200, 625 PPM 6 HR/D 5 D/WK FOR 103 WK (STUDY DURATION: 2 YR), Tumor Site: Type of Lesion: HEART: HEMANGIOSARCOMA, LUNG: ALVEOLAR/BRONCHIOLAR ADENOMA, ADENOCARCINOMA OR CARCINOMA, FORESTOMACH: SQUAMOUS CELL PAPI, Tumor Site: Type of Lesion: HEART: HEMANGIOSARCOMA, LUNG: ALVEOLAR/BRONCHIOLAR ADENOMA, ADENOCARCINOMA OR CARCINOMA, FORESTOMACH: SQUAMOUS CELL PAPI) was “active; positive”. The carcinogen call (Species: MOUSE, Strain/Sex: B6C3F1/FEMALE, Route: INHALATION, Dose: 0, 6.25, 20, 62.5, 200 PPM 6 HR/D 5 D/WK FOR 65 WK (STUDY DURATION: 104 WK), Dose: 0, 6.25, 20, 62.5, 200 PPM 6 HR/D 5 D/WK FOR 65 WK (STUDY DURATION: 104 WK), Tumor Site: Type of Lesion: HEART: HEMANGIOSARCOMA, LUNG: ALVEOLAR/BRONCHIOLAR TUMOR, MAMMARY GLAND: ADENOCARCINOMA, OVARY: GRANULOSA CELL TUMOR, Tumor Site: Type of Lesion: HEART: HEMANGIOSARCOMA, LUNG: ALVEOLAR/BRONCHIOLAR TUMOR, MAMMARY GLAND: ADENOCARCINOMA, OVARY: GRANULOSA CELL TUMOR) was “active; positive”, the carcinogen call (Species: MOUSE, Strain/Sex: B6C3F1/FEMALE, Route: INHALATION, Dose: 0, 1000, 5000, 10000 PPM FOR 2 HR ONCE (STUDY DURATION: 2 YR), Dose: 0, 1000, 5000, 10000 PPM FOR 2 HR ONCE (STUDY DURATION: 2 YR)) was “inactive; negative” and the carcinogen call (Species: MOUSE, Strain/Sex: B6C3F1/FEMALE, Route: INHALATION, Dose: 625, 1250 PPM 6 HR/D 5/WK FOR 61 WK, Tumor Site: Type of Lesion: LYMPHATIC SYSTEM: MALIGNANT LYMPHOMA, LUNG: ALVEOLAR/BRONCHIOLAR ADENOMA, CARCINOMA, MYOCARDIUM: HEMANGIOSARCOMA, FOREST, Tumor Site: Type of Lesion: LYMPHATIC SYSTEM: MALIGNANT LYMPHOMA, LUNG: ALVEOLAR/BRONCHIOLAR ADENOMA, CARCINOMA, MYOCARDIUM: HEMANGIOSARCOMA, FOREST) was “active; positive”. For the same compound, the carcinogen call (Species: MOUSE, Strain/Sex: B6C3F1/MALE, Route: INHALATION, Dose: 0, 6.25, 20, 62.5, 200, 625 PPM 6 HR/D 5 D/WK FOR 2 YR (STUDY DURATION: 2 YR), Dose: 0, 6.25, 20, 62.5, 200, 625 PPM 6 HR/D 5 D/WK FOR 2 YR (STUDY DURATION: 2 YR), Tumor Site: Type of Lesion: HEMATOPOIETIC SYSTEM: LYMPHOCYTIC LYMPHOMA, LYMPHOMA, BLOOD VESSELS: HEMANGIOSARCOMA, LUNG: ALVEOLAR/BRONCHIOLAR TUMOR;, Tumor Site: Type of Lesion: HEMATOPOIETIC SYSTEM: LYMPHOCYTIC LYMPHOMA, LYMPHOMA, BLOOD VESSELS: HEMANGIOSARCOMA, LUNG: ALVEOLAR/BRONCHIOLAR TUMOR) was “active; positive”, the carcinogen call (Species: MOUSE, Strain/Sex: B6C3F1/MALE, Route: INHALATION, Dose: 0, 6.25, 20, 62.5, 200, 625 PPM 6 HR/D 5 D/WK FOR 2 YR (STUDY DURATION: 2 YR), Dose: 0, 6.25, 20, 62.5, 200, 625 PPM 6 HR/D 5 D/WK FOR 2 YR (STUDY DURATION: 2 YR), Tumor Site: Type of Lesion: PREPUTIAL GLAND: ADENOMA OR CARCINOMA, LIVER: HEPATOCELLULAR TUMOR, HARDERIAN GLAND: TUMOR, Tumor Site: Type of Lesion: PREPUTIAL GLAND: ADENOMA OR CARCINOMA, LIVER: HEPATOCELLULAR TUMOR, HARDERIAN GLAND: TUMOR) was “active; positive” and the carcinogen call (Species: MOUSE, Strain/Sex: B6C3F1/MALE, Route: INHALATION, Dose: 0, 6.25, 20, 62.5, 200, 625 PPM 6 HR/D 5 D/WK FOR 103 WK (STUDY DURATION: 2 YR), Dose: 0, 6.25, 20, 62.5, 200, 625 PPM 6 HR/D 5 D/WK FOR 103 WK (STUDY DURATION: 2 YR), Tumor Site: Type of Lesion: HEART: HEMANGIOSARCOMA, LUNG: ALVEOLAR/BRONCHIOLAR ADENOMA, ADENOCARCINOMA OR CARCINOMA, FORESTOMACH: SQUAMOUS CELL PAPI, Tumor Site: Type of Lesion: HEART: HEMANGIOSARCOMA, LUNG: ALVEOLAR/BRONCHIOLAR ADENOMA, ADENOCARCINOMA OR CARCINOMA, FORESTOMACH: SQUAMOUS CELL PAPI) was “active; positive”. The carcinogen call (Species: MOUSE, Strain/Sex: B6C3F1/MALE, Route: INHALATION, Dose: 0, 6.25, 20, 62.5, 200 PPM, 6 HR/D 5 D/WK FOR 65 WK (STUDY DURATION: 104 WK), Dose: 0, 6.25, 20, 62.5, 200 PPM, 6 HR/D 5 D/WK FOR 65 WK (STUDY DURATION: 104 WK), Tumor Site: Type of Lesion: HEART: HEMANGIOSARCOMA, LUNG: ALVEOLAR/BRONCHIOLAR TUMOR, HARDERIAN GLAND: ADENOMA, Tumor Site: Type of Lesion: HEART: HEMANGIOSARCOMA, LUNG: ALVEOLAR/BRONCHIOLAR TUMOR, HARDERIAN GLAND: ADENOMA) was “active; positive”, the carcinogen call (Species: MOUSE, Strain/Sex: B6C3F1/MALE, Route: INHALATION, Dose: 0, 200 PPM 6 HR/D 5 D/WK FOR 40 WK, 625 PPM FOR 13 WK, 312 PPM FOR 52 WK OR 625 PPM FOR 26 WK FOLLOWED BY CONTROL CHAMBE, Dose: 0, 200 PPM 6 HR/D 5 D/WK FOR 40 WK, 625 PPM FOR 13 WK, 312 PPM FOR 52 WK OR 625 PPM FOR 26 WK FOLLOWED BY CONTROL CHAMBE, Tumor Site: Type of Lesion: HEART: HEMANGIOSARCOMA, LUNG: ALVEOLAR/BRONCHIOLAR ADENOMA, ADENOCARCINOMA OR CARCINOMA, FORESTOMACH: SQUAMOUS CELL PAPI, Tumor Site: Type of Lesion: HEART: HEMANGIOSARCOMA, LUNG: ALVEOLAR/BRONCHIOLAR ADENOMA, ADENOCARCINOMA OR CARCINOMA, FORESTOMACH: SQUAMOUS CELL PAPI) was “active; positive” and the carcinogen call (Species: MOUSE, Strain/Sex: B6C3F1/MALE, Route: INHALATION, Dose: 0, 1000, 5000, 10000 PPM FOR 2 HR ONCE (STUDY DURATION: 2 YR), Dose: 0, 1000, 5000, 10000 PPM FOR 2 HR ONCE (STUDY DURATION: 2 YR)) was “inactive; negative”. The carcinogen call (Species: MOUSE, Strain/Sex: B6C3F1/MALE, Route: INHALATION, Dose: 625, 1250 PPM 6 HR/D 5/WK FOR 60 WK, Tumor Site: Type of Lesion: LYMPHATIC SYSTEM: MALIGNANT LYMPHOMA, LUNG: ALVEOLAR/BRONCHIOLAR ADENOMA, CARCINOMA, MYOCARDIUM: HEMANGIOSARCOMA, FOREST, Tumor Site: Type of Lesion: LYMPHATIC SYSTEM: MALIGNANT LYMPHOMA, LUNG: ALVEOLAR/BRONCHIOLAR ADENOMA, CARCINOMA, MYOCARDIUM: HEMANGIOSARCOMA, FOREST) was “active; positive”, the carcinogen call (Species: RAT, Strain/Sex: SPRAGUE-DAWLEY/FEMALE, Route: INHALATION, Dose: 0, 1000, 8000 PPM 6 HR/D 5 D/WK FOR 105 WK (STUDY DURATION: 105 WK), Dose: 0, 1000, 8000 PPM 6 HR/D 5 D/WK FOR 105 WK (STUDY DURATION: 105 WK), Tumor Site: Type of Lesion: UTERUS: SARCOMA, MAMMARY GLAND: ADENOMA, ZYMBAL GLAND: CARCINOMA, THYROID GLAND: FOLLICULAR CELL ADENOMA, Tumor Site: Type of Lesion: UTERUS: SARCOMA, MAMMARY GLAND: ADENOMA, ZYMBAL GLAND: CARCINOMA, THYROID GLAND: FOLLICULAR CELL ADENOMA) was “active; positive” and the carcinogen call (Species: RAT, Strain/Sex: SPRAGUE-DAWLEY/MALE, Route: INHALATION, Dose: 0, 1000, 8000 PPM 6 HR/D 5 D/WK FOR 111 WK (STUDY DURATION: 111 WK), Dose: 0, 1000, 8000 PPM 6 HR/D 5 D/WK FOR 111 WK (STUDY DURATION: 111 WK), Tumor Site: Type of Lesion: PANCREAS: ACINAR CELL ADENOMA, TESTES: LEYDIG CELL TUMOR) was “active; positive”.

In the case of O=CC1CO1 (configuration not stated), the carcinogen call (Species: MOUSE, Route: DERMAL, Tumor Site: Type of Lesion: INTEGUMENTARY SYSTEM (SKIN)) is reported as “active; positive” and the carcinogen call (Species: MOUSE, Route: SUBCUTANEOUS, Tumor Site: Type of Lesion: INJECTION SITE) is reported as “active; positive”.
